The test system of one assay is HIV derived RRE RNA. Put plainly: heterologous hybridization inhibition assay with RRE RNA. The class given is binding. Particulars: radiolabeled RRE RNA, rRNA competitor; call rule not given here. An excerpt:
Specificity is further tested in a third assay in which the radiolabeled RNA is the HIV derived RRE RNA and the biotinylated oligonucleotide is complementary to RRE. Compounds with high specific activity for εRNA are not expected to be inhibitory in the RRE RNA based assay. The specificity of the ligand for εRNA is expressed as the ratio between the IC50 value obtained with the specific target RNA and the IC50 value obtained with a heterologous target (RRE RNA), both in the presence of competitor RNA.
(§1) Biotinylated oligonucleotides 262.104 A (5′-biotin-TTAGGCACAGCTTGGAGGCTTGAACAGTG-3′) and 208.92 A (5′-biotin-CGTCATTGACGCTGCGCCCA-3′) were synthetically prepared (Oligos Etc., Willsonville, Oreg.). These oligonucleotides are complementary to regions of the εRNA and RRE RNA targets, respectively.
Compounds that inhibited the primary screening assay described above were individually titrated in the same assay at concentrations between 0.1 μM and 200 μM in the absence and presence of 60-fold excess rRNA as a non-specific competitor. A third titration was performed in a heterologous assay using radiolabeled RRE RNA as the target and the complementary biotinylated oligonucleotide 208.92 A. From these three assays, the IC50 values and specificity for each compound was calculated.
IC50 values using rRNA competitor (from Example 1) and radiolabeled RRE RNA are shown in Table 1 for the following ligands. […] Specificity is calculated as the ratio of RRE+rRNA IC50/εRNA+rRNA IC50.

For another assay, the system named is HBV εRNA. Put plainly: εRNA/oligonucleotide hybridization inhibition assay with rRNA competitor. Particulars: for pIC50: radiolabeled εRNA, 60-fold excess rRNA competitor; for Specificity: ratio RRE+rRNA IC50/εRNA+rRNA IC50, max = inactive in RRE assay. It is filed as binding, Hepatitis B virus.
From the text: One assay used in determining the activity of the compounds of the present invention is disclosed in copending U.S. patent application Ser. No. 08/709,342, filed Sep. 6, 1996, the disclosure of which is hereby incorporated herein by reference in its entirety. The assay detects the interaction between target RNA molecule and a test ligand by measuring the ligand's ability to inhibit hybridization between the RNA and a specific complementary oligonucleotide. In one embodiment, the target RNA is radiolabelled and the oligonucleotide is labeled with biotin; in this case, the extent of hybridization is determined by measuring the amount of radiolabeled RNA detected with a streptavidin/biotin-based capture system.
Concentrations of test compounds of between about 0.1 μM and about 200 μM are assayed for inhibition using radiolabeled εRNA in the absence or presence of a large excess of an unlabeled non-specific RNA competitor (such as, e.g., ribosomal RNA, rRNA). Compounds that bind εRNA non-specifically are competitively displaced by the rRNA, resulting in reduced or no inhibition of hybridization between the radiolabeled εRNA and the biotinylated oligonucleotide. Conversely, the inhibitory activity of compounds that specifically bind εRNA is not affected by the presence of the competitor rRNA.
The high throughput assays were performed in 96-well plates containing eighty drugs (5 μl, 60 μg/ml in DMSO) distributed one per well in columns 2-6 and 8-12 of the 8×12 96-well array. The remaining 16 wells in columns 1 and 7 were filled with 5 μl DMSO to serve as the control reactions. 45 μl of reaction mixture containing buffer, salts and radiolabeled target RNA were delivered on each well of the compound-containing plates to yield a 50 μl mixture containing 50 mM Tris-HCl, pH 7.5, 200 mM KCl, 5 mM MgCl2, 5 mM DTT, 6 μg/ml test compound, and 25 nM [^32 P]-labeled εRNA. The reaction was started by addition of the biotinylated oligonucleotide, 262.104 A (5 μl) to a final concentration of 100 nM. The reaction was incubated at 25° C. for 60 minutes, and then 5 μl of 0.3 mg/ml SAAP (streptavidin alkaline phosphatase conjugate, Pierce, Rockford, Ill.) was added. The reaction was incubated for an additional 30 minutes at 25° C. and filtered through 96-well format HATF nitrocellulose filters (Millipore, Bedford, Mass.) using a multiscreen vacuum manifold (Millipore, Bedford, Mass.). Subsequently, 300 μl of wash buffer (50 mM Tris-HCl, pH 7.5, 200 mM KCl) was filtered through to wash the filters. The filters were dried and supplemented with 20 μl scintillation fluid (Super Mix, Wallac Oy, Turku, Finland). The amount of hybrids formed was determined by scintillation counting of the radiolabeled εRNA retained on the filters.
The inhibitory effect of a test compound (expressed as percentage of inhibition, % Inh.) was calculated using the following formula: […]
where Ro is the average retention of hybrids in the 16 identical control reactions in columns 1 and 7 and Rx is the hybrids retained in the presence of a test drug, x.
as §1
A plasmid containing the target sequence following the bacteriophage SP6 promoter was used as a template for the synthesis of radiolabeled εRNA using [α^32 P]-UTP and SP6 RNA polymerase as described by the suppliers, e.g., Ambion, Austin, Tex., and by methods well known to those of ordinary skill in the art.
Compounds that inhibited the primary screening assay described above were individually titrated in the same assay at concentrations between 0.1 μM and 200 μM in the absence and presence of 60-fold excess rRNA as a non-specific competitor. […]

pIC50: −log10 of the molar value.

The term pIC50 denotes the IC50 on a negative log10 scale, so that one unit is a factor of ten. With `Cc1[nH]c2ccccc2c1C=NNc1nc(Nc2ccc([N+](=O)[O-])cc2)nc(N2CCCCCC2)n1` [Compound 92], the values for the pIC50 in the assay on HIV derived RRE RNA and in the assay on HBV εRNA were 5.00 and 5.60, respectively. In addition, the Specificity in the assay on HBV εRNA came out at 4.0.
Take `COc1ccc([N+](=O)[O-])cc1C=NNc1nc(NCc2ccccc2)nc(Nc2ccccc2)n1` [Compound 54]: the “RRE + rRNA IC50 (μM)” value in the assay with HIV derived RRE RNA was “inactive”. Moreover, in the assay on HBV εRNA, the pIC50 is 4.05 and the Specificity entry is on record as “max”.
Consider `CCN(CC)c1nc(NN=Cc2ccncc2)nc(Nc2ccc([N+](=O)[O-])cc2)n1` [Compound 115], for which the pIC50 in the assay with HIV derived RRE RNA was 3.89; in the assay with HBV εRNA it was 4.12. In addition, the Specificity in the assay with HBV εRNA was found to be 1.7.
In the case of `CCOc1ccc(C=NNc2nc(Nc3ccc([N+](=O)[O-])cc3)nc(N3CCCCC3)n2)cc1O` [Compound 129], the pIC50 in the assay on HIV derived RRE RNA is 3.92. Also, in the assay on HBV εRNA, the pIC50 is 4.60 and the Specificity came to 4.8.
`O=[N+]([O-])c1ccc(Nc2nc(N/N=C/c3ccccc3)nc(N3CCCCCC3)n2)cc1` [Compound 80]: the “RRE + rRNA IC50 (μM)” value in the assay on HIV derived RRE RNA was “inactive”. Besides, in the assay on HBV εRNA, the pIC50 is 3.70 and the Specificity entry is given as “max”.
Take `Brc1cc2c(cc1C=NNc1nc(Nc3ccccc3)nc(N3CCCCC3)n1)OCO2` [Compound 70]: in the assay on HIV derived RRE RNA, the “RRE + rRNA IC50 (μM)” value is “inactive”. In addition, in the assay with HBV εRNA, the pIC50 was 4.09 and the Specificity result is “max”.
`Cc1ccc(Nc2nc(NN=Cc3ccc(Br)cc3)nc(Nc3ccccc3)n2)c(C)c1` [Compound 59]: in the assay on HIV derived RRE RNA, the “RRE + rRNA IC50 (μM)” value was “inactive”. Further, in the assay with HBV εRNA, the negative logarithm of the IC50 (pIC50) is 4.05 and the Specificity entry was “max”.
In the same order, the values of `O=[N+]([O-])c1ccc(Nc2nc(NN=Cc3ccc(-c4ccc([N+](=O)[O-])cc4)o3)nc(N3CCCC3)n2)cc1` [Compound 47] are “inactive”, 4.60 and “max”.
`CCCCN(CCCC)c1nc(NN=Cc2ccc(C=NNc3nc(Nc4ccc([N+](=O)[O-])cc4)nc(N(CCCC)CCCC)n3)cc2)nc(Nc2ccc([N+](=O)[O-])cc2)n1` [Compound 154]: the pIC50 in the assay on HIV derived RRE RNA is 3.52. In addition, in the assay with HBV εRNA, the pIC50 was 2.93 and the Specificity is given as 0.3.
Turning to `O=C1Nc2ccccc2C1=NNc1nc(Nc2ccc([N+](=O)[O-])cc2)nc(N2CCOCC2)n1` [Compound 130], the pIC50 with HIV derived RRE RNA is 3.40. In the assay with HBV εRNA, the negative-log IC50 (pIC50) was 4.48 and the Specificity is 12.2.
As to `O=C1Nc2ccccc2C1=NNc1nc(Nc2ccc([N+](=O)[O-])cc2)nc(N2CCCCC2)n1` [Compound 153], the pIC50 in the assay with HIV derived RRE RNA was 3.30. In the assay on HBV εRNA, the pIC50 was 3.30 and the Specificity is 1.0.
`CCN(CC)c1nc(NN=CC=Cc2ccccc2)nc(Nc2ccc([N+](=O)[O-])cc2)n1` [Compound 132]: in the assay with HIV derived RRE RNA, the pIC50 was 3.10. For the same compound, in the assay on HBV εRNA, the pIC50 was 4.15 and the Specificity amounted to 11.4.
Regarding `O=[N+]([O-])c1ccc(Nc2nc(NN=Cc3c4ccccc4cc4ccccc34)nc(N3CCCCC3)n2)cc1` [Compound 37], the “RRE + rRNA IC50 (μM)” value in the assay on HIV derived RRE RNA is “inactive”. In the assay with HBV εRNA, the negative logarithm of the IC50 (pIC50) was 4.52 and the Specificity result is “max”.
With `CCCCN(CCCC)c1nc(NN=Cc2cccc(Br)c2)nc(Nc2ccc([N+](=O)[O-])cc2)n1` [Compound 83], the “RRE + rRNA IC50 (μM)” value in the assay on HIV derived RRE RNA is “inactive”. For the same compound, in the assay on HBV εRNA, the pIC50 was 3.73 and the Specificity result is recorded as “max”.
As for `O=[N+]([O-])c1ccc(Nc2nc(NN=Cc3ccc(Cl)c(Cl)c3)nc(N3CCCCC3)n2)cc1` [Compound 57], the “RRE + rRNA IC50 (μM)” value in the assay on HIV derived RRE RNA was “inactive”. In the assay on HBV εRNA, the pIC50 was 4.30 and the Specificity result is listed as “max”.
For the compound `CC(=NNc1nc(Nc2ccc([N+](=O)[O-])cc2)nc(N2CCOCC2)n1)c1ccc([N+](=O)[O-])cc1` [Compound 118], the pIC50 with HIV derived RRE RNA is 4.30. For the same compound, in the assay with HBV εRNA, the negative logarithm of the IC50 (pIC50) was 4.60 and the Specificity worked out at 2.0.
As for `O=[N+]([O-])c1ccc(Nc2nc(NN=Cc3cc(Cl)ccc3O)nc(N3CCOCC3)n2)cc1` [Compound 106], in the assay on HIV derived RRE RNA, the pIC50 was 4.15. Moreover, in the assay with HBV εRNA, the negative-log IC50 (pIC50) is 4.92 and the Specificity is listed as 5.8.
The corresponding values for `C(=NNc1nc(Nc2ccccc2)nc(N2CCCC2)n1)c1c[nH]c2ccccc12` [Compound 89] are 4.12, 4.90 and 6.0.
The corresponding values for `O=[N+]([O-])c1ccc(Nc2nc(NN=Cc3ccccc3I)nc(N3CCCCC3)n2)cc1` [Compound 124] are 3.52, 4.52 and 10.0.
As to `Fc1ccc(Nc2nc(Nc3cccc(C(F)(F)F)c3)nc(N3CCOCC3)n2)cc1` [Compound 71], the “RRE + rRNA IC50 (μM)” value with HIV derived RRE RNA was “inactive”. Further, in the assay on HBV εRNA, the pIC50 was 4.00 and the Specificity entry is recorded as “max”.
For the compound `Cc1[nH]c2ccccc2c1C=NNc1nc(NCc2ccccc2)nc(N2CCOCC2)n1` [Compound 142], the pIC50 in the assay with HIV derived RRE RNA was 2.95. For the same compound, in the assay with HBV εRNA, the pIC50 was 3.65 and the Specificity was 5.0.
As for `O=[N+]([O-])c1ccc(Nc2nc(NN=Cc3ccc(O)cc3)nc(N3CCCCC3)n2)cc1` [Compound 111], in the assay on HIV derived RRE RNA, the pIC50 is 3.34. In the assay with HBV εRNA, the negative-log IC50 (pIC50) was 4.64 and the Specificity amounted to 20.0.
On to `O=[N+]([O-])c1ccc(Nc2nc(NN=Cc3cc(Br)ccc3O)nc(N3CCOCC3)n2)cc1` [Compound 107], for which the pIC50 in the assay on HIV derived RRE RNA was 4.60. Also, in the assay with HBV εRNA, the pIC50 was 4.83 and the Specificity is listed as 1.7.
The corresponding values for `COc1ccc(C=NNc2nc(Nc3ccccc3)nc(Nc3ccc(C)cc3C)n2)cc1` [Compound 126] are 3.30, 4.22 and 8.3.
Take `Nc1cccc(Nc2nc(Nc3cccc(N)c3)nc(N(c3ccccc3)c3ccccc3)n2)c1` [Compound 32]: the “RRE + rRNA IC50 (μM)” value in the assay with HIV derived RRE RNA is “inactive”. For the same compound, in the assay with HBV εRNA, the pIC50 is 4.49 and the Specificity entry is recorded as “max”.
`O=[N+]([O-])c1ccc(Nc2nc(NN=Cc3cc(I)ccc3O)nc(N3CCCCC3)n2)cc1` [Compound 108]: in the assay with HIV derived RRE RNA, the negative-log IC50 (pIC50) is 4.40. Besides, in the assay with HBV εRNA, the pIC50 was 4.79 and the Specificity is listed as 2.5.
Consider `CCCCN(CCCC)c1nc(NN=Cc2ccc(O)c(O)c2)nc(Nc2ccc([N+](=O)[O-])cc2)n1` [Compound 26], for which the “RRE + rRNA IC50 (μM)” value in the assay on HIV derived RRE RNA was “inactive”. In the assay on HBV εRNA, the negative-log IC50 (pIC50) was 4.82 and the Specificity entry is “max”.
Regarding `CCCCN(CCCC)c1nc(NN=Cc2ccccc2OC)nc(Nc2ccc([N+](=O)[O-])cc2)n1` [Compound 86], the “RRE + rRNA IC50 (μM)” value in the assay with HIV derived RRE RNA is “inactive”. In the assay on HBV εRNA, the pIC50 is 3.70 and the Specificity result is given as “max”.

The values are drawn from patent US6335339B1, “Triazine antiviral compounds” (Scriptgen Pharmaceuticals, Inc., priority 1998, dated 2002).
